Data as given in ChEMBL document CHEMBL1153108, “Neolignans from Piper kadsura and their anti-neuroinflammatory activity” (Bioorg Med Chem Lett, 2010).
Active and inactive are the calls of the source. The rule behind the calls is not given here.

What was measured:
[1] = test system: BV-2; experiment: Antineuroinflammatory activity in mouse BV2 cells assessed as inhibition of LPS-induced nitric oxide production at 20 uM after 24 hrs by Griess reagent method; type: functional; conditions: for inhibition at 20 µM: BV-2, 24 h
[2] = test system: BV-2; experiment: Antineuroinflammatory activity in mouse BV2 cells assessed as inhibition of LPS-induced nitric oxide production after 24 hrs by Griess reagent method; type: functional, cell-based; conditions: for IC50: BV-2, 24 h
[3] = Cytotoxicity against mouse BV2 cells by MTT assay; type: cell-based, BV-2; conditions: read-out: INH
[4] = test system: BV-2; experiment: Inhibition of LPS-induced iNOS expression in mouse BV2 cells at 5 to 20 uM after 6 hrs by Western blot analysis; type: functional, cell-based
[5] = molecular target: T1, Nitric oxide synthase, inducible (Mus musculus) (UniProt P29477); experiment: Inhibition of iNOS in LPS-stimulated mouse BV2 cells at 25 to 100 uM after 24 hrs by Griess reagent method; type: cell-based; conditions: BV-2
T1 sequence (whole entry): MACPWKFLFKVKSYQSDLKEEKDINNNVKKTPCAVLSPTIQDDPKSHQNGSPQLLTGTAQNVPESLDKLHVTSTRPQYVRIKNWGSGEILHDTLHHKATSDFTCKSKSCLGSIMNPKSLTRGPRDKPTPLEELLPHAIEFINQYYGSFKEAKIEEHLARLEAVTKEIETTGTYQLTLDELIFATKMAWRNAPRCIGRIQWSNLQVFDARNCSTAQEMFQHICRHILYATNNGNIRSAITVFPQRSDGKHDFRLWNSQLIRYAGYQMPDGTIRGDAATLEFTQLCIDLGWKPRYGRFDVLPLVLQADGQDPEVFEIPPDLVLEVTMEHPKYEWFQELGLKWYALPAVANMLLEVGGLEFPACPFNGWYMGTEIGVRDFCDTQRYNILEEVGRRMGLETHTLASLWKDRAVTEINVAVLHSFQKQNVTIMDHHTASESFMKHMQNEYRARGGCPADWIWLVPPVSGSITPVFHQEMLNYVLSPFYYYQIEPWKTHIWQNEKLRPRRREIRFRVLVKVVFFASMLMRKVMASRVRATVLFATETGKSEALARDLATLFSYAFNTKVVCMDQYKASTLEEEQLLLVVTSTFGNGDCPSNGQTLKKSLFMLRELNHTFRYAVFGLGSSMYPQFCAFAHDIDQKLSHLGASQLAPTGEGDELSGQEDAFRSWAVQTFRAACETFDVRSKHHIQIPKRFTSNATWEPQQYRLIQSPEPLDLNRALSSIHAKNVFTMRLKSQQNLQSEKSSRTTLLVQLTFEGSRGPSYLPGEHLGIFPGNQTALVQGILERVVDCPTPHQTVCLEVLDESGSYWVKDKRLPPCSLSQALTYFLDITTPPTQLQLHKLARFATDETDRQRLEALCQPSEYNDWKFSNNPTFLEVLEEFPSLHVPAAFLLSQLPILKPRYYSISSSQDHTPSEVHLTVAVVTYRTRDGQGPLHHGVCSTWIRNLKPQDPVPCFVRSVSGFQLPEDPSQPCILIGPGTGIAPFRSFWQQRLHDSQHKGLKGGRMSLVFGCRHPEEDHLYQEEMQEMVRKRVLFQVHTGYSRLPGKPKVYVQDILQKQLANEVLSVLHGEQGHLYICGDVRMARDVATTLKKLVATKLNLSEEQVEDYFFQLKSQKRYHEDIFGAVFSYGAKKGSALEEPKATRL

[6] = Effect on nitric oxide radical scavenging activity in sodium nitroprusside solution assessed as nitric oxide release after 15 mins by Griess reagent method; type: physicochemical; conditions: 0.25 h

| Compound | inhibition at 20 µM [1] | IC50 [2] | inhibition [1] | further results |
| --- | --- | --- | --- | --- |
| C=CCc1ccc(OC)c(OC(C)C(OC(C)=O)c2ccc(OC)c(OC)c2)c1OC (stereo not given) | 27.2% | 33.2 µM | – | – |
| C=CCC1=C[C@]2(OC)[C@H](C)[C@@H](c3ccc(OC)c(OC)c3)[C@H](C1=O)[C@@H]2OC(C)=O | – | – | inactive | – |
| C=CC[C@]12C(=O)C=C(OC)[C@]3(OC)[C@@H]1[C@]3(C)[C@H]2c1ccc2c(c1)OCO2 | – | – | inactive | – |
| C=CCC1=C[C@]2(OC)C(=CC1=O)O[C@H](c1ccc3c(c1)OCO3)[C@H]2C [DENUDATIN A] | – | – | – | cytotoxicity [3]: 23.2% |
| C=CCC1=CC(OC)(/C(C)=C/c2ccc3c(c2)OCO3)C(OC)=CC1=O (stereo not given) [FUTOQUINOL] | 55.3% | 16.8 µM | – | inhibition [2]: Dose-dependent effect |
| C=CCC1=C[C@@]2(OC)C(=CC1=O)O[C@H](c1ccc(OC)c(OC)c1)[C@H]2C [KADSURENONE] | – | – | inactive | cytotoxicity [3]: 21.3% |
| C=CCC1=CC2=C(OC)[C@H](C1=O)[C@]2(C)[C@H](O)c1ccc2c(c1)OCO2 [PIPERKADSIN C] | 60.8% | 14.6 µM | – | Activity [4]: inactive; Activity [5]: Active; Activity [6]: Not Active; inhibition [2]: Dose-dependent effect |
| CNC(=N)NCCC[C@H](N)C(=O)O [TILARGININE] | 55.3% | 16.8 µM | – | – |
| C=CCC1=CC(OC)(/C(C)=C/c2ccc(OC)c(OC)c2)C(OC)=CC1=O (stereo not given) [WALLICHININE] | 18.5% | 45.6 µM | – | – |
